Test system: Oct-3/4 gene
Assay: Oct-3/4 gene expression level by real time PCR (ES cell differentiation inhibition assay 2)
Assay type: cell-based, mouse
Conditions: D3ES cells, 7 days; for expression of Oct-3/4 gene in comparison with ES cells cultured in the medium without the differentiation inhibiting agent: GAPDH internal standard, FIG. 6; for effect of keeping the expression of the Oct-3/4 gene relative to ESGRO: compared with 1,000 units/mL of ESGRO
Experimental: For the D3ES cells prepared by the method described in (3) preparation of a mouse ES cell of Example 1, 8×10^4 cells were seeded in a 10 cm-diameter cell culture dish coated previously with a 0.1% aqueous gelatin solution to make 10 mL of the ES cell assay medium. 1 mL of the differentiation inhibiting agent A to F, which were dissolved in dimethylsulfoxide (DMSO) or culture medium or their mixture to make 40 μg/mL per each dish, or ESGRO, which was adjusted to make 10^4 unit/mL, was added, and culturing was carried out at 37° C. in 5% […] incubator for 7 days. To the culture medium was added DMSO to make the final concentration 0.1% or lower.
A total RNA was extracted from the ES cells cultured by the method described in (1) ES cell differentiation inhibition assay 2 as described above, by using ISOGEN (K.K. Nippon Gene, Japan made) by the attached method. First, the medium was removed from the dish after the culture, the cells were washed twice with 10 mL of PBS, and dissolved in 1 mL of ISOGENE. After leaving stand at room temperature for 5 minutes, the solution was collected in a 1.5 mL Eppendorf tube. 0.2 mL of chloroform (Wako Pure Chemical Industries made) was added, shaken for 15 seconds and, then, left stand at room temperature for 2 or 3 minutes. The solution was centrifuged at 4° C. at 10000 rpm for 10 minutes by using a micro centrifuge (TOMY SEIKO Corp. made). 400 μL of the supernatant was transferred to a fresh 1.5 mL Eppendorf tube, 500 μL of isopropanol (Wako Pure, Chemical Industries made) was added, and left stand at room temperature for 10 minutes, and, then, centrifuged at 4° C. at 10000 rpm for 10 minutes by using the micro centrifuge. After the supernatant was removed, 1 mL of a 70% aqueous ethanol solution was added followed by shaking and, then, centrifugation was carried out at 4° C. at 10000 rpm for about 5 minutes by using, the micro centrifuge. After the supernatant was removed, a precipitation was dried and dissolved in 30 μL of distilled water to obtain the total RNA solution.
2 μg of the thus obtained total RNA was used as a template to synthesize a cDNA according to the attached protocol by using Deoxyribonuclease I (Amplification Grade)(Invitrogen Corp. made), Oligo(dT) 12-18 primer (Invitrogen Corp. made, 18418-012) and Omniscript reverse transcriptase (QIAGEN Corp, made). Thus, a reaction solution was prepared by adding 1 μL of 10× DNaseI Reaction Buffer, 1 μL of 10× DNaseI (all were made by Invitrogen Corp.) and distilled water to 2 μg of total RNA to make 10 μL in total, and the mixture was incubated at room temperature for 10 minutes. 1 μL of 25 mM EDTA solution was added and heated at 65° C. for 10 minutes. The mixture was cooled to room temperature, and then, 2 μL of 10× Buffer RT, 2 μL of 5 mM dNTP Mix, 2 μL of Oligo(dT) 12-18 primer, 0.25 μL of RNaseOUT (Invitrogen Corp. made, 10777-019) and 1 μL of Omniscript Reverse Transcriptase were added, and RNase-free purified water was added to give the total volume of 20 μL, and the mixture was incubated at 37° C. for 60 minutes to obtain cDNA solution. A portion of the synthesized cDNA obtained in such the way was diluted 5 folds with distilled water, and 2 μL of the solution was used as the template to conduct PCR by using Light Cycler-Fast Start DNA Master SYBR Green I Kit (Roche Diagnostics Corp. made) according to the attached protocol. The expression levels of the Oct-3/4 gene and glyceraldehyde-3-phosphate dehydrogenase (GAPDH) gene as the internal standard were measured. For amplifying the Oct-3/4 gene, sense primer OCT3 up (SEQ ID No.: 1) and antisense primer Oct3 down (SEQ ID No.: 2) were used, and for amplifying the GAPDH gene, sense primer GAPDH up (SEQ ID No.: 3) and antisense primer GAPDH down (SEQ ID No.: 4) were used. The composition of the PCR reaction solution and the reaction condition will be each presented below.

Row | Structure (SMILES) | expression of Oct-3/4 gene in comparison with ES cells cultured in the medium without the differentiation inhibiting agent | effect of keeping the expression of the Oct-3/4 gene relative to ESGRO
1 | CC(=O)c1ccc(/N=N/C(C(N)=O)=C2/NC(C)(C)Cc3ccccc32)cc1 [compound B, 2-(4-acetyl-phenylazo)-2-(3,3-dimethyl-3,4-dihydro-2H-isoquinoline-1-ylidene)-acetamide] | significantly promoted | comparable with 1,000 units/mL of ESGRO
2 | CC1(C)Cc2ccccc2C(=C(N=Nc2cccc([N+](=O)[O-])c2)C(N)=O)N1 [E, 2-(3,3-dimethyl-3,4-dihydro-2H-isoquinoline-1-ylidene)-2-(3-nitro-phenylazo)-acetamide] | maintained the expression of the Oct-3/4 gene | 
3 | COc1ccc(N=NC(C(N)=O)=C2NC(C)(C)Cc3ccccc32)cc1 [F, 2-(3,3-dimethyl-3,4-dihydro-2H-isoquinoline-1-ylidene)-2-(4-methoxy-phenylazo)-acetamide] | significantly promoted | comparable with 1,000 units/mL of ESGRO
4 | CC1(C)Cc2ccccc2C(=C(N=Nc2cccc(Cl)c2)C(N)=O)N1 [C, 2-(3-chloro-phenylazo)-2-(3,3-dimethyl-3,4-dihydro-2H-isoquinoline-1-ylidene)-acetamide] | maintained the expression of the Oct-3/4 gene | 
